From publication PMC8468783, “New Flavone C-Glycosides from Scleranthus perennis and Their Anti-Collagenase Activity” (Molecules, 2021)

Legend:
[1] = target: collagenase from Clostridium histolyticum; assay: In vitro collagenase inhibition assay (spectrophotometric, FALGPA substrate); assay type: biochemical; details: mean ± SD, triplicate; 0.1 U/mL collagenase, 0.8 mM FALGPA, Tricine buffer pH 7.5, 37 °C, 20 min incubation, absorbance at 335 nm; read-out: Anti-collagenase activity IC50
Protocol: The previous spectrophotometric procedure was modified and subsequently employed to determine the anti-collagenase activity of the isolated compounds [23]. This assay was performed in 50 mM Tricine buffer (pH = 7.5; 400 mM NaCl, 10 mM CaCl2). The mixed solution included 25 µL of 0.1 U/mL collagenase from Clostridium histolyticum, 25 µL Tricine buffer, and 25 µL of various levels of the sample were incubated at 37 °C for 20 min. After incubation, 75 µL of 0.8 mM FALGPA substrate was present. Then, absorbance was measured at 335 nm wavelength. Negative control was performed using Tricine buffer instead of sample and positive control was conducted with EGCG.
The percentage inhibition for assay was calculated by: Enzyme inhibition activity (%) = [1 − […]] × 100% where C is the negative control and S is the sample.

SMILES | IC50 [1] [µM] | melting point [°C]
CC(=O)Oc1ccc(-c2cc(=O)c3c(O)cc(O)c(C4OCC(O)C(O)C4OC4OC(CO)C(O)C(O)C4O)c3o2)cc1O [Compound 1, 5,7,3′-trihydroxy-4′-acetoxyflavone-8-C-β-D-xylopyranoside-2′′-O-glucoside] | 70.2 ± 1.37 | 188.5 to 189
COc1ccc(-c2cc(=O)c3c(O)cc(O)c(C4OCC(O)C(O)C4OC4OC(CO)C(O)C(O)C4O)c3o2)cc1O [Compound 2, 5,7,3′-trihydroxy-4′-methoxyflavone-8-C-β-D-xylopyranoside-2′′-O-glucoside] | 64.9 ± 1.08 | 178.5 to 179.2
COc1cc(-c2cc(=O)c3c(O)cc(O)c(C4OCC(O)C(O)C4OC4OC(CO)C(O)C(O)C4O)c3o2)ccc1OC(C)=O [Compound 3, 5,7-dihydroxy-3′-methoxy-4′-acetoxyflavone-8-C-β-D-xylopyranoside-2′′-O-glucoside] | 48.3 ± 1.05 | –
COc1cc(-c2cc(=O)c3c(O)cc(O)c(C4OCC(O)C(O)C4OC4OC(CO)C(OC(C)=O)C(O)C4O)c3o2)ccc1OC(C)=O [Compound 4, 5,7-dihydroxy-3′-methoxy-4′-acetoxyflavone-8-C-β-D-xylopyranoside-2′′-O-(4′′′-acetoxy)-glucoside] | 36.1 ± 0.78 | 164.6 to 166.2
COc1ccc(C(C)=O)c(O[C@@H]2O[C@H](CO[C@@H]3OC[C@](O)(CO)[C@H]3O)[C@@H](O)[C@H](O)[C@H]2O)c1 [Compound 5, apiopaenonside] | > 125 | –
O=C(O[C@@H]1Cc2c(O)cc(O)cc2O[C@@H]1c1cc(O)c(O)c(O)c1)c1cc(O)c(O)c(O)c1 [EGCG, Epigallocatechin gallate, reference compound] | 34.32 ± 0.21 | –
